Consider twelve compounds from patent US6451814B1, “Heterocyclic β-3 adrenergic receptor agonists” (Wyeth, priority 2000, dated 2002).

Data set [1] has as its target T1, human β3-adrenergic receptor (Homo sapiens, UniProt P13945).
T1 construct: Full length β3 AR clones (402 amino acids) containing the last 6 amino acids of hβ3—AR are prepared; expressed in transfected cells; host or cells: CHO cells
The data set is described as follows: cAMP response (SPA kit) in CHO cells transfected with human β3 adrenergic receptor. Type of data set: cell-based. As to conditions: for EC50: CHO cells expressing human β3-AR, 10^-9 M to 10^-5 M, 30 min at 37° C., cAMP by SPA; for IA(β3): maximal response of compound compared to maximal response of isoproterenol at 10^-5 M, CHO cells, human β3-AR.

Where two headings read alike, the source gives them in different places.

T1 sequence (P13945 whole entry): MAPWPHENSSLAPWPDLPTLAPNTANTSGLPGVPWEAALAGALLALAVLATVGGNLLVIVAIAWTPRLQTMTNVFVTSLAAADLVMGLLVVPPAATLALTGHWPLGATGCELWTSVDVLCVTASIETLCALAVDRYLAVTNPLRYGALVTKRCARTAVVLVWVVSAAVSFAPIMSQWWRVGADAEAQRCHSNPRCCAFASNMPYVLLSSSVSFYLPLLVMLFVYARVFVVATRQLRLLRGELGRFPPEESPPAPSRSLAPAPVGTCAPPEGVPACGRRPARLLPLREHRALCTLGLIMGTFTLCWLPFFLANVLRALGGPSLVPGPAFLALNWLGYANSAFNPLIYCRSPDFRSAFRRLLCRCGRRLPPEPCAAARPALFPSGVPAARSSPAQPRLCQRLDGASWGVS

Turning to `O=C(NCc1cc(F)cc(F)c1)N1CCC(Nc2ccc(CCNC[C@H](O)COc3ccc(O)cc3)cc2)CC1` [Example 24, 4-(4-{2-[(2S)-2-Hydroxy-3-(4-hydroxy-phenoxy)-propylamino]-ethyl}-phenylamino)-piperidine-1-carboxylic Acid 3,5-difluoro-benzylamide], the melting point lay in the range of 89 to 95 °C. Moreover, in data set [1] (read-out: EC50(β3)), the half-maximal effective concentration (EC50) was 0.04 µM. The “IA(β3)” value in data set [1] is reported as 0.84.
Take `CCCCCCNC(=O)N1CCC(Sc2ccc(CCNC[C@H](O)COc3ccc(O)cc3)cc2)CC1` [Example 41, N-hexyl-4-{[4-(2-{[(2S)-2-hydroxy-3-(4-hydroxyphenoxy)propyl]amino}ethyl)phenyl]sulfanyl}-1-piperidinecarboxamide]: the melting point lay within 181 to 195 °C. The EC50 in data set [1] (read-out: EC50(β3)) was found to be 0.62 µM. Besides, in data set [1], the “IA(β3)” value worked out at 0.84.
`O=C(OCc1ccc(F)cc1)N1CCC(Nc2ccc(CCNC[C@H](O)COc3ccc(O)cc3)cc2)CC1` [Example 121, 4-(4-{2-[(2S)-2-Hydroxy-3-(4-hydroxy-phenoxy)-propylamino]-ethyl}-phenylamino)-piperidine-1-carboxylic acid 4-fluoro-benzyl Ester] yielded a melting point of 60 to 62 °C. Also, the EC50 in data set [1] (read-out: EC50(β3)) came to 0.09 µM. In data set [1], the “IA(β3)” value is 0.69.
The compound `O=C(NCC(F)(F)F)N1CCC(Nc2ccc(CCNC[C@H](O)COc3ccc(O)cc3)cc2)CC1` [Example 13, 4-(4-{2-[(2S)-2-Hydroxy-3-(4-hydroxy-phenoxy)-propylamino]-ethyl}-phenylamino)-piperidine-1-carboxylic Acid (2,2,2-trifluoro-ethyl)-amide] came in with a melting point of 89 to 94 °C. Further, the concentration for a half-maximal effect (EC50) in data set [1] (read-out: EC50(β3)) is 0.066 µM. Besides, the “IA(β3)” value in data set [1] is on record as 0.82.
With `O=C(c1cc2cccc([N+](=O)[O-])c2[nH]1)N1CCC(Nc2ccc(CCNC[C@H](O)COc3ccc(O)cc3)cc2)CC1` [Example 95, [4-(4-{2-[(2S)-2-Hydroxy-3-(4-hydroxy-phenoxy)-propylamino]-ethyl}-phenylamino)-piperidin-1-yl]-(7-nitro-1H-indol-2-yl)-methanone], the melting point was 100 to 102 °C. In addition, the EC50 in data set [1] (read-out: EC50(β3)) was 0.066 µM. The “IA(β3)” value in data set [1] came to 0.9.
For `CCCCCCCCNC(=O)N1CCC(Nc2ccc(CCNC[C@H](O)c3ccc(O)c(NS(C)(=O)=O)c3)cc2)CC1` [Example 59, 4-(4-{2-[(2R)-2-Hydroxy-2-(4-hydroxy-3-methanesulfonylamino-phenyl)-ethylamino]-ethyl}-phenylamino)-piperidine-1-carboxylic Acidoctylamide], the melting point fell in the range of 160 to 162 °C. In addition, the half-maximal effective concentration (EC50) in data set [1] (read-out: EC50(β3)) was determined as 0.003 µM. Further, the “IA(β3)” value in data set [1] is 1.
In turn, `O=C(NCc1ccc(-n2cccn2)cc1C(F)(F)F)N1CCC(Nc2ccc(CCNC[C@H](O)COc3ccc(O)cc3)cc2)CC1` [Example 34, 4-(4-{2-[(2S)-2-Hydroxy-3-(4-hydroxy-phenoxy)-propylamino]-ethyl}-phenylamino)-piperidine-1-carboxylic Acid 4-pyrazol-1-yl-2-trifluoromethyl-benzylamide] registered a melting point of 96 to 100 °C. For the same compound, the EC50 in data set [1] (read-out: EC50(β3)) is 0.062 µM. Moreover, the “IA(β3)” value in data set [1] is on record as 0.83.
`CN(C)C(=O)Oc1ccc(CCNC(=O)N2CCC(Nc3ccc(CCNC[C@H](O)COc4ccc(O)cc4)cc3)CC2)cc1` [Example 74, Dimethyl-carbamic Acid 4-(2-{[4-(4-{2-[(2S)-2-hydroxy-3-(4-hydroxy-phenoxy)-propylamino]-ethyl}-phenylamino)-piperidine-1-carbonyl]-amino}-ethyl)-phenyl Ester] had a melting point of 86 to 88 °C. In addition, the 50% effective concentration (EC50) in data set [1] (EC50(β3, μM)) came to 0.045 µM. Moreover, the “IA(β3)” value in data set [1] is on record as 0.88.
With `CCOC(=O)C1CCN(C(=O)N2CCC(Nc3ccc(CCNC[C@H](O)c4ccc(O)c(NS(C)(=O)=O)c4)cc3)CC2)CC1` [Example 51, 1-[4-(4-{2-[(2R)-2-Hydroxy-2-(4-hydroxy-3-methanesulfonylamino-phenyl)-ethylamino]-ethyl}-phenylamino)-piperidine-1-carbonyl]-piperidine-4-carboxylic Acid Ethyl Ester], the melting point was in the range of 93 to 97 °C. Further, in data set [1] (read-out: EC50(β3)), the EC50 is 0.001 µM. Also, the “IA(β3)” value in data set [1] was 0.82.
In the case of `CCOC(=O)C1CCN(C(=O)N2CCC(Nc3ccc(CCNC[C@H](O)COc4ccc(O)cc4)cc3)CC2)CC1` [Example 61, 1-[4-(4-{2-[(2S)-2-Hydroxy-3-(4-hydroxy-phenoxy)-propylamino]-ethyl}-phenylamino)-piperidine-1-carbonyl]-piperidine-4-carboxylic Acid Ethyl Ester], the melting point fell in the range of 69 to 71 °C. Also, the EC50 in data set [1] (read-out: EC50(β3)) is 0.089 µM. Also, the “IA(β3)” value in data set [1] is on record as 1.34.
`O=C(NCc1ccc(F)cc1)N1CCC(Sc2ccc(CCNC[C@H](O)COc3ccc(O)cc3)cc2)CC1` [Example 42, 4-(4-{2-[(2S)-2-Hydroxy-3-(4-hydroxy-phenoxy)-propylamino]-ethyl}-phenylsulfanyl)-piperidine-1-carboxylic Acid-4-fluorobenzylamide] returned a melting point of 181 to 183 °C. In addition, the EC50 in data set [1] (read-out: EC50(β3)) came to 0.095 µM. For the same compound, the “IA(β3)” value in data set [1] amounted to 0.72.
In the same order, the values of `CCCCCCCCNC(=O)N1CCC(Nc2ccc(CCNC[C@H](O)COc3ccc(O)cc3Cl)cc2)CC1` [Example 16, 4-[4-(2-{[(2S)-3-(2-Chloro-4-hydroxyphenoxy)-2-hydroxypropyl]amino}ethyl)anilino]-N-octyl-1-piperidinecarboxamide] are 61 to 65 °C, 0.542 µM and 1.

The EC50 is the midpoint of the concentration-response curve. For orientation: melting point means the temperature of the solid-liquid transition.
